# Results as given in publication PMC10748408 (Frontiers in Oncology, 2023).
# Marks after values point to notes of the source that are not given here.
# What was measured:
# Format in all cases: in vivo, BALB/c mice
# normal mice = test: Serum biochemical parameters (ALT, AST, creatinine, urea) of normal mice treated with ART
# Experimental: Levels of alanine aminotransferase (ALT) and aspartate aminotransferase (AST) from the serum were determined using ALT and AST estimation kits (Robonik India Pvt. Ltd, India). Briefly, for ALT activity estimation, Reagent 1 (Tris Buffer, L-Alanine, Lactate Dehydrogenase) and Reagent 2 (α-ketoglutarate, NADH) was mixed (4:1) with 100 µl serum. After 60 seconds incubation, absorbance was measured at 340 nm every minute for 180 seconds (ΔA/minute). Finally, the activity was estimated using the formula: Activity of the sample = (ΔA/minute x 1746). Analysis and final calculations were carried out according to the manufacturer’s protocol ([29]) For AST activity estimation, Reagent 1 (Tris Buffer, L-Aspartate, Lactate Dehydrogenase; >600U/L, Malate dehydrogenase; >600U/L) and Reagent 2 (α-ketoglutarate, NADH) was mixed together (4:1) with 100 µl serum. After incubation for 60 seconds, absorbance was measured at 340 nm per minute for 180 seconds (ΔA/minute). Finally, the activity was estimated using the formula: Activity of the sample = (ΔA/minute x 1746). Analysis and final calculations were carried out according to the manufacturer’s protocol ([30]). For estimation of creatinine level, picric acid (0.5 ml), buffer (0.5 ml) and sample (Test)/standard (S) (0.1 ml) were mixed and absorbance was measured at 520 nm for 30 seconds and 60 seconds. The rate of change of absorbance was determined for the standard (ΔS) and test (ΔT) samples. The levels were estimated using the formula: creatinine (mg/dl) = (ΔT)/(ΔS) x 2.0 ([31]). Urea levels were estimated using specific metabolite analysis kits. Buffer (1 ml), enzyme (0.1 ml), sample (test)/standard (0.1 ml) and chromogen reagent (0.2 ml) were mixed. Absorbance was measured at 570 nm after 5 minutes of incubation of test (Abs T) and standard (Abs S) samples. The levels were estimated using the formula: Urea (mg/dl) = (AbsT)/(AbsS) x 40. Analysis and calculations were carried out according to the manufacturer’s protocol ([32]). […]
# tumor-bearing mice [1] = test: Hematological parameters of tumor-bearing mice treated with ART; settings: 7 days
# tumor-bearing mice [2] = test: Mean survival time of tumor-bearing mice; settings: for MST: tumor-bearing mice, observed 90 days
# Experimental: MST was calculated using the equation: MST (days) = (day of first mortality + day of last mortality)/2. The increase in survivability between treated and untreated groups was estimated by ILS% = [(MST of treated set/MST of untreated set) -1] X 100 ([26]).
# CLEC12A = test: Western blot of CLEC12A in tumor tissues; settings: ART treatment, dose-dependent
# Experimental: Normal and tumor tissues were homogenized in ice-cold radioimmunoprecipitation assay (RIPA) buffer containing a protease inhibitor cocktail. Proteins were resolved by 10% sodium dodecyl sulphate-polyacrylamide gel electrophoresis (SDS-PAGE), transferred onto polyvinylidene difluoride (PVDF) membranes, blocked with 5% fat-free milk and incubated with primary antibodies (1:1000 dilution) overnight at 4°C. Blots were subsequently washed and incubated with respective secondary antibodies, tagged with horseradish peroxidase. Protein expression was detected using enhanced chemiluminescence (ECL) kit ([37]). Blots were analyzed using the Gel Doc XR and band intensity quantified using ImageJ software (NIH, USA).
# [3] = test system: TNF-α, IL-1β, IL-6 and IL-12; test: Serum pro-inflammatory cytokine ELISA; settings: ART-treated vs untreated tumor-bearing mice
# Experimental: Serum isolated from experimental mice, and conditioned media collected from MDA-MB-231 and 4T1 cells, were used to estimate levels of cytokines by ELISA. To prepare the conditioned media, the cell culture medium containing serum was discarded and cells were washed with serum-free DMEM media. […] After incubation, the conditioned media was collected for cytokine analysis. As per the manufacturer’s protocol, samples were added to the multi-analyte ELISArray wells, coated with antibodies for TNF-α, IL-1β, IL-6 and IL-12 and incubated for 2 hours. Detection antibodies were added, followed by 30 minutes incubation with avidin-HRP. After incubating with the developing solution, stop solution (Qiagen) was added to terminate the reaction ([39]). The O.D. was measured at 450 and 570 nm in an ELISA plate reader (Varioskan Lux, Thermo Fisher; USA).
# [4] = ART 6.25 mg/kg body wt, 3 weeks (21 days)
# [5] = ART 12.5 mg/kg body wt, 3 weeks (21 days)
# [6] = ART 25 mg/kg body wt, 3 weeks (21 days)
# [7] = ART 50 mg/kg body wt, 3 weeks (21 days)
compound,measurement,setting,value
"C[C@@H]1CC[C@H]2[C@@H](C)C(=O)O[C@@H]3O[C@@]4(C)CC[C@@H]1[C@]32OO4 [ART, Artemisinin]",ALT,normal mice; [4],28.1±2.6 U/l
same,AST,normal mice; [4],29.8±4.6 U/l
same,Creatinine,normal mice; [4],0.48 ± 0.21 mg/dL
same,Urea,normal mice; [4],31.6 ± 1.9 mg/dL
same,ALT,"normal mice; ART 6.25 mg/kg body wt, 7 days",23.7 ± 1.8 U/l
same,AST,"normal mice; ART 6.25 mg/kg body wt, 7 days",27.3 ± 0.8 U/l
same,Creatinine,"normal mice; ART 6.25 mg/kg body wt, 7 days",0.51 ± 0.09 mg/dL
same,Urea,"normal mice; ART 6.25 mg/kg body wt, 7 days",24.5 ± 1.2 mg/dL
same,ALT,normal mice; [5],29.3±3.1 U/l
same,AST,normal mice; [5],31.4±2.6 U/l
same,Creatinine,normal mice; [5],0.68 ± 0.12 mg/dL
same,Urea,normal mice; [5],28.7 ± 2.3 mg/dL
same,ALT,"normal mice; ART 12.5 mg/kg body wt, 7 days",26.6 ± 2.2 U/l
same,AST,"normal mice; ART 12.5 mg/kg body wt, 7 days",29.6 ± 1.3 U/l
same,Creatinine,"normal mice; ART 12.5 mg/kg body wt, 7 days",0.77 ± 0.13 mg/dL
same,Urea,"normal mice; ART 12.5 mg/kg body wt, 7 days",26.3 ± 1.6 mg/dL
same,ALT,normal mice; [6],29.5±2.1 U/l
same,AST,normal mice; [6],28.5±2.8 U/l
same,Creatinine,normal mice; [6],0.49 ± 0.3 mg/dL
same,Urea,normal mice; [6],30.1 ± 2.6 mg/dL
same,ALT,"normal mice; ART 25 mg/kg body wt, 7 days",30.7 ± 1.5 U/l
same,AST,"normal mice; ART 25 mg/kg body wt, 7 days",31.7 ± 3.1 U/l
same,Creatinine,"normal mice; ART 25 mg/kg body wt, 7 days",0.62 ± 0.07 mg/dL
same,Urea,"normal mice; ART 25 mg/kg body wt, 7 days",28.2 ± 0.8 mg/dL
same,ALT,normal mice; [7],28.8±3.2 U/l
same,AST,normal mice; [7],30.3±1.9 U/l
same,Creatinine,normal mice; [7],0.62 ± 0.38 mg/dL
same,Urea,normal mice; [7],28.9 ± 2.1 mg/dL
same,ALT,"normal mice; ART 50 mg/kg body wt, 7 days",26.4 ± 2.3 U/l
same,AST,"normal mice; ART 50 mg/kg body wt, 7 days",29.3 ± 2.6 U/l
same,Creatinine,"normal mice; ART 50 mg/kg body wt, 7 days",0.71 ± 0.1 mg/dL
same,Urea,"normal mice; ART 50 mg/kg body wt, 7 days",27.1 ± 1.3 mg/dL
same,Differential Count % B (Basophils),tumor-bearing mice [1]; ART 6.25 mg/kg body wt i.p.,0%
same,Differential Count % E (Eosinophils),tumor-bearing mice [1]; ART 6.25 mg/kg body wt i.p.,0%
same,Differential Count % L (Lymphocyte),tumor-bearing mice [1]; ART 6.25 mg/kg body wt i.p.,36± 2.5%
same,Differential Count % M (Monocytes),tumor-bearing mice [1]; ART 6.25 mg/kg body wt i.p.,1%
same,Differential Count % N (Neutrophils),tumor-bearing mice [1]; ART 6.25 mg/kg body wt i.p.,63± 1.4%
same,Hb,tumor-bearing mice [1]; ART 6.25 mg/kg body wt i.p.,10.1 ± 0.42 g/dL
same,Total RBC,tumor-bearing mice [1]; ART 6.25 mg/kg body wt i.p.,5.1± 0.1 10^6 cells/mm^3
same,Total WBC,tumor-bearing mice [1]; ART 6.25 mg/kg body wt i.p.,16.8± 0.8** 10^3 cells/mm^3
same,Differential Count % B (Basophils),tumor-bearing mice [1]; ART 12.5 mg/kg body wt i.p.,0%
same,Differential Count % E (Eosinophils),tumor-bearing mice [1]; ART 12.5 mg/kg body wt i.p.,0%
same,Differential Count % L (Lymphocyte),tumor-bearing mice [1]; ART 12.5 mg/kg body wt i.p.,51± 2.6 %
same,Differential Count % M (Monocytes),tumor-bearing mice [1]; ART 12.5 mg/kg body wt i.p.,1%
same,Differential Count % N (Neutrophils),tumor-bearing mice [1]; ART 12.5 mg/kg body wt i.p.,48± 2.6 %
same,Hb,tumor-bearing mice [1]; ART 12.5 mg/kg body wt i.p.,13.7 ± 0.33 g/dL
same,Total RBC,tumor-bearing mice [1]; ART 12.5 mg/kg body wt i.p.,6.3± 0.29^* 10^6 cells/mm^3
same,Total WBC,tumor-bearing mice [1]; ART 12.5 mg/kg body wt i.p.,10.2± 1.16^*** 10^3 cells/mm^3
same,Differential Count % B (Basophils),tumor-bearing mice [1]; ART 25 mg/kg body wt i.p.,0%
same,Differential Count % E (Eosinophils),tumor-bearing mice [1]; ART 25 mg/kg body wt i.p.,0%
same,Differential Count % L (Lymphocyte),tumor-bearing mice [1]; ART 25 mg/kg body wt i.p.,53± 2.1 %
same,Differential Count % M (Monocytes),tumor-bearing mice [1]; ART 25 mg/kg body wt i.p.,1%
same,Differential Count % N (Neutrophils),tumor-bearing mice [1]; ART 25 mg/kg body wt i.p.,46± 1.3 %
same,Hb,tumor-bearing mice [1]; ART 25 mg/kg body wt i.p.,14.2 ± 0.21 g/dL
same,Total RBC,tumor-bearing mice [1]; ART 25 mg/kg body wt i.p.,6.7± 0.14^* 10^6 cells/mm^3
same,Total WBC,tumor-bearing mice [1]; ART 25 mg/kg body wt i.p.,9.3± 1.8^*** 10^3 cells/mm^3
same,Differential Count % B (Basophils),tumor-bearing mice [1]; ART 50 mg/kg body wt i.p.,0%
same,Differential Count % E (Eosinophils),tumor-bearing mice [1]; ART 50 mg/kg body wt i.p.,0%
same,Differential Count % L (Lymphocyte),tumor-bearing mice [1]; ART 50 mg/kg body wt i.p.,57± 1.2 %
same,Differential Count % M (Monocytes),tumor-bearing mice [1]; ART 50 mg/kg body wt i.p.,2%
same,Differential Count % N (Neutrophils),tumor-bearing mice [1]; ART 50 mg/kg body wt i.p.,41± 1.5 %
same,Hb,tumor-bearing mice [1]; ART 50 mg/kg body wt i.p.,14.6 ± 0.61 g/dL
same,Total RBC,tumor-bearing mice [1]; ART 50 mg/kg body wt i.p.,7.6± 0.67^* 10^6 cells/mm^3
same,Total WBC,tumor-bearing mice [1]; ART 50 mg/kg body wt i.p.,9.1± 1.23^*** 10^3 cells/mm^3
same,mean survival of tumor-bearing mice treated with ART,"tumor-bearing mice [2]; Kaplan-Meier plot, untreated succumbed within 50 days",~90 days
same,MST,tumor-bearing mice [2]; ART 6.25 mg/kg body wt,48.2 ± 17.3 days
same,MST,tumor-bearing mice [2]; ART 12.5 mg/kg body wt,61.3 ± 8.9 days
same,MST,tumor-bearing mice [2]; ART 25 mg/kg body wt,75.4 ± 7.1 days
same,MST,tumor-bearing mice [2]; ART 50 mg/kg body wt,88.3 ± 8.9 days
same,expression of CLEC12A,CLEC12A,reduced
same,"levels of pro-inflammatory cytokines (TNF-α, IL-1β, IL-6 and IL-12)",[3],dose-dependent reduction
